Source: patent US20230398130A1, “METHODS AND COMPOSITIONS FOR DIFFERENTIATING STEM CELLS” (Massachusetts Institute of Technology, priority 2020, published 2023)

Columns and labels:
[1] = system: ISC-enriched organoids; assay: Primary screen, 384-well 2.5-D organoid differentiation (ENR+CD, 6 days, Target Selective Inhibitor Library, vs whole-plate median): ATP (CellTiter-Glo 3D, CTG); conditions: for Dose.FC.CTG: FC vs plate median; for SSMD.CTG: strictly standardized mean difference; for Dose.FC.CTG (log 2 fold change): vs plate median
[2] = system: ISC-enriched organoids; assay: Primary screen, 384-well 2.5-D organoid differentiation (ENR+CD, 6 days): basal lysozyme secretion (LYZ.NS); type: cell-based, murine; conditions: for Dose.FC.LYZ.NS: FC vs plate median; for SSMD.LYZ.NS: strictly standardized mean difference; for Dose.FC.LYZ.NS (log 2 fold change): vs plate median
From the text: (§1) High-throughput screening.

[3] = system: ISC-enriched organoids; assay: Primary screen, 384-well 2.5-D organoid differentiation (ENR+CD, 6 days): carbachol-induced lysozyme secretion (LYZ.S); type: cell-based, murine; conditions: primary screen; for Dose.FC.LYZ.S: FC vs plate median; for Z.LYZ.S: standard z score; for SSMD.LYZ.S: strictly standardized mean difference; for Dose.FC.LYZ.S (log 2 fold change): vs plate median
From the text: as §1

[4] = Dose 0.08 uM, primary screen, standard z score
[5] = Dose 0.40 uM, primary screen, standard z score
[6] = Dose 2.00 uM, primary screen, standard z score
[7] = Dose 10.00 uM, primary screen, standard z score
[8] = primary screen, 1st of the 4 dose lines of the treatment (dose not given)
[9] = primary screen, 2nd of the 4 dose lines of the treatment (dose not given)
[10] = primary screen, 3rd of the 4 dose lines of the treatment (dose not given)
[11] = primary screen, 4th of the 4 dose lines of the treatment (dose not given)
[12] = 1st of the 4 dose lines of the treatment (dose not given)
[13] = 2nd of the 4 dose lines of the treatment (dose not given)
[14] = 3rd of the 4 dose lines of the treatment (dose not given)
[15] = 4th of the 4 dose lines of the treatment (dose not given)
[16] = Dose 0.08 uM, standard z score of FC
[17] = Dose 0.40 uM, standard z score of FC
[18] = Dose 2.00 uM, standard z score of FC
[19] = Dose 10.00 uM, standard z score of FC
[20] = primary screen, dose 0.08 uM, ENR+CD 6 days
[21] = primary screen, dose 0.08 uM, standard z score of FC
[22] = primary screen, dose 0.40 uM, ENR+CD 6 days
[23] = primary screen, dose 0.40 uM, standard z score of FC
[24] = primary screen, dose 2.00 uM, ENR+CD 6 days
[25] = primary screen, dose 2.00 uM, standard z score of FC
[26] = primary screen, dose 10.00 uM, ENR+CD 6 days
[27] = primary screen, dose 10.00 uM, standard z score of FC

Work on `Cc1ccc(C(=O)N(CCCN)[C@@H](c2nc3cc(Cl)ccc3c(=O)n2Cc2ccccc2)C(C)C)cc1` [Ispinesib (SB-715992)] yielded a Dose.FC.CTG ([1]; Dose 0.08 uM, primary screen) of −0.323 log 2 fold change, a Z.CTG [1, 4] of −0.772 and a Dose.FC.CTG ([1]; Dose 0.40 uM, primary screen) of −0.518 log 2 fold change. It also gave a Z.CTG [1, 5] of −1.238, a Dose.FC.CTG ([1]; Dose 2.00 uM, primary screen) of −0.511 log 2 fold change and a Z.CTG [1, 6] of −1.220. For the same compound, the Dose.FC.CTG ([1]; Dose 10.00 uM, primary screen) was −0.713 log 2 fold change, the Z.CTG [1, 7] was −1.704 and the SSMD.CTG [1, 8] was −0.942. For the same compound, the SSMD.CTG [1, 9] was −0.971, the SSMD.CTG [1, 10] was −1.118 and the SSMD.CTG [1, 11] was −1.236. It also gave a Dose.FC.LYZ.NS ([2]; Dose 0.08 uM, primary screen) of −0.222 log 2 fold change, a Z.LYZ.NS [2, 4] of −1.931 and a Dose.FC.LYZ.NS ([2]; Dose 0.40 uM, primary screen) of −0.191 log 2 fold change. For the same compound, the Z.LYZ.NS [2, 5] was −1.663, the Dose.FC.LYZ.NS ([2]; Dose 2.00 uM, primary screen) was −0.196 log 2 fold change and the Z.LYZ.NS [2, 6] was −1.709. For the same compound, the Dose.FC.LYZ.NS ([2]; Dose 10.00 uM, primary screen) was −0.201 log 2 fold change, the Z.LYZ.NS [2, 7] was −1.752 and the SSMD.LYZ.NS [2, 8] was −1.681. It also gave an SSMD.LYZ.NS [2, 9] of −1.354, an SSMD.LYZ.NS [2, 10] of −1.617 and an SSMD.LYZ.NS [2, 11] of −1.093. The Dose.FC.LYZ.S ([3]; Dose 0.08 uM) was −0.271 log 2 fold change, the Dose.FC.LYZ.S ([3]; Dose 0.40 uM) was −0.296 log 2 fold change and the Dose.FC.LYZ.S ([3]; Dose 2.00 uM) was −0.287 log 2 fold change. It also gave a Dose.FC.LYZ.S ([3]; Dose 10.00 uM) of −0.286 log 2 fold change, a Z.LYZ.S [3, 12] of −1.753 and a Z.LYZ.S [3, 13] of −1.914. The Z.LYZ.S [3, 14] was −1.859, the Z.LYZ.S [3, 15] was −1.850 and the SSMD.LYZ.S [3, 12] was −1.495. For the same compound, the SSMD.LYZ.S [3, 13] was −1.509, the SSMD.LYZ.S [3, 14] was −1.657 and the SSMD.LYZ.S [3, 15] was −1.525.
With `O=C(NCc1cccc(O)c1)Nc1nc(-c2ccncc2)cs1` [RKI-1447] the “Z.CTG (standard z score)” value ([1]; Dose 0.08 uM, primary screen) was −0.948, the “Dose.FC.CTG (log 2 fold change)” value ([1]; Dose 0.08 uM, primary screen) was −0.397 and the “Z.CTG (standard z score)” value ([1]; Dose 0.40 uM, primary screen) was −0.441. For the same compound, the “Dose.FC.CTG (log 2 fold change)” value ([1]; Dose 0.40 uM, primary screen) was −0.184, the “Z.CTG (standard z score)” value ([1]; Dose 2.00 uM, primary screen) was −0.540 and the “Dose.FC.CTG (log 2 fold change)” value ([1]; Dose 2.00 uM, primary screen) was −0.226. For the same compound, the “Z.CTG (standard z score)” value ([1]; Dose 10.00 uM, primary screen) was −0.816, the “Dose.FC.CTG (log 2 fold change)” value ([1]; Dose 10.00 uM, primary screen) was −0.342 and the “Z.LYZ.NS (standard z score)” value ([2]; Dose 0.08 uM, primary screen) was −0.055. The “Dose.FC.LYZ.NS (log 2 fold change)” value ([2]; Dose 0.08 uM, primary screen) was −0.006, the “Z.LYZ.NS (standard z score)” value ([2]; Dose 0.40 uM, primary screen) was −0.803 and the “Dose.FC.LYZ.NS (log 2 fold change)” value ([2]; Dose 0.40 uM, primary screen) was −0.092. For the same compound, the “Z.LYZ.NS (standard z score)” value ([2]; Dose 2.00 uM, primary screen) was −0.077, the “Dose.FC.LYZ.NS (log 2 fold change)” value ([2]; Dose 2.00 uM, primary screen) was −0.009 and the “Z.LYZ.NS (standard z score)” value ([2]; Dose 10.00 uM, primary screen) was −1.594. The “Dose.FC.LYZ.NS (log 2 fold change)” value ([2]; Dose 10.00 uM, primary screen) was −0.183, the “Dose.FC.LYZ.S (log 2 fold change)” value ([3]; Dose 0.08 uM) was −0.056 and the “Dose.FC.LYZ.S (log 2 fold change)” value ([3]; Dose 0.40 uM) was −0.064. For the same compound, the “Dose.FC.LYZ.S (log 2 fold change)” value ([3]; Dose 2.00 uM) was −0.017 and the “Dose.FC.LYZ.S (log 2 fold change)” value ([3]; Dose 10.00 uM) was −0.297.
In the case of `O=c1cc(N2CCOCC2)oc2c1ccc1ccccc12` [NU7026], the Dose.FC.CTG ([1]; Dose 0.08 uM, primary screen) is reported as 0.096 log 2 fold change, the Z.CTG [1, 16] is reported as 0.230 and the Dose.FC.CTG ([1]; Dose 0.40 uM, primary screen) is reported as 0.104 log 2 fold change. The Z.CTG [1, 17] was 0.248, the Dose.FC.CTG ([1]; Dose 2.00 uM, primary screen) was 0.107 log 2 fold change and the Z.CTG [1, 18] was 0.255. The Dose.FC.CTG ([1]; Dose 10.00 uM, primary screen) was −0.119 log 2 fold change, the Z.CTG [1, 19] was −0.284 and the Dose.FC.LYZ.NS ([2]; Dose 0.08 uM, primary screen) was 0.023 log 2 fold change. It also gave a Z.LYZ.NS [2, 16] of 0.198, a Dose.FC.LYZ.NS ([2]; Dose 0.40 uM, primary screen) of 0.023 log 2 fold change and a Z.LYZ.NS [2, 17] of 0.198. The Dose.FC.LYZ.NS ([2]; Dose 2.00 uM, primary screen) was −0.058 log 2 fold change, the Z.LYZ.NS [2, 18] was −0.507 and the Dose.FC.LYZ.NS ([2]; Dose 10.00 uM, primary screen) was −0.158 log 2 fold change. The Z.LYZ.NS [2, 19] was −1.380, the Dose.FC.LYZ.S ([3]; Dose 0.08 uM) was 0.021 log 2 fold change and the Dose.FC.LYZ.S ([3]; Dose 0.40 uM) was 0.034 log 2 fold change. It also gave a Dose.FC.LYZ.S ([3]; Dose 2.00 uM) of −0.056 log 2 fold change and a Dose.FC.LYZ.S ([3]; Dose 10.00 uM) of −0.198 log 2 fold change.
`C[C@H]1COC2(CCN(c3nc(=O)c4cc(C(F)(F)F)cc([N+](=O)[O-])c4s3)CC2)O1` (racemic) [BTZ043 Racemate] gave a Dose.FC.CTG [1, 20] of 0.497 log 2 fold change, a Z.CTG [1, 21] of 1.187 and a Dose.FC.CTG [1, 22] of 0.545 log 2 fold change. The Z.CTG [1, 23] was 1.303, the Dose.FC.CTG [1, 24] was 0.063 log 2 fold change and the Z.CTG [1, 25] was 0.150. For the same compound, the Dose.FC.CTG [1, 26] was 0.327 log 2 fold change, the Z.CTG [1, 27] was 0.782 and the Dose.FC.LYZ.NS [2, 20] was 0.131 log 2 fold change. The Z.LYZ.NS [2, 21] was 1.138, the Dose.FC.LYZ.NS [2, 22] was 0.186 log 2 fold change and the Z.LYZ.NS [2, 23] was 1.619. The Dose.FC.LYZ.NS [2, 24] was 0.089 log 2 fold change, the Z.LYZ.NS [2, 25] was 0.776 and the Dose.FC.LYZ.NS [2, 26] was 0.100 log 2 fold change. The Z.LYZ.NS [2, 27] was 0.870, the Dose.FC.LYZ.S ([3]; dose 0.08 uM, ENR+CD 6 days) was 0.199 log 2 fold change and the Dose.FC.LYZ.S ([3]; dose 0.40 uM, ENR+CD 6 days) was 0.252 log 2 fold change. For the same compound, the Dose.FC.LYZ.S ([3]; dose 2.00 uM, ENR+CD 6 days) was 0.038 log 2 fold change and the Dose.FC.LYZ.S ([3]; dose 10.00 uM, ENR+CD 6 days) was 0.070 log 2 fold change.
